Assay results as given in US8420823B2, “Long-chain fatty acyl elongase inhibitor comprising arylsulfonyl derivative as active ingredient” (MSD K.K., priority 2008, dated 2013).
Counter-ions that a name gives are not always drawn.

molecular target: T1, human LCE (Homo sapiens, UniProt Q9H5J4); experiment: LCE enzyme activity-inhibitory test; assay type: biochemical; conditions: [14C]-malonyl CoA / palmitoyl CoA substrate, 37° C., 90 minutes
T1 sequence (Q9H5J4 1-265): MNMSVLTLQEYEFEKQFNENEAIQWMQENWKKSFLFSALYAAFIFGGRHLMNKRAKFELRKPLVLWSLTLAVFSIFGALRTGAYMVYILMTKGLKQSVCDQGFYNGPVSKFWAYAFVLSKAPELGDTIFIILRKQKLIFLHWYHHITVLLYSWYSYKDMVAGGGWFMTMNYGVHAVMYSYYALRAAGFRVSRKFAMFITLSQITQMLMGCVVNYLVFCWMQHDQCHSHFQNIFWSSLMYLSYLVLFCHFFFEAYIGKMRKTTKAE
Experimental: Pharmacological Test Example 1 (LCE Enzyme Activity-inhibitory Test)
A test compound was dissolved in dimethyl sulfoxide (DMSO to be 10 mM), and then diluted with DMSO to prepare a 1000-fold concentrated solution of the test concentration. An improved Moon et al's method (J. Biol. Chem., Vol. 276, pp. 45358-45366, 2001) was employed for the LCE enzyme activity-inhibitor test. Concretely, the diluted compound was applied to a 96-well assay plate (Corning, 96-well assay block) in an amount of 1.0 μL/well; 50 μL of a phosphate buffer solution (100 mM potassium phosphate buffer, pH 6.5), and 25 μL of a substrate solution (100 mM potassium phosphate buffer (pH 6.5), 4.0 μM rotenone, 80 μM fatty acid-free bovine serum albumin, 160 μM palmitoyl CoA, 80 μM malonyl CoA, 3.5 μM [^14C]-malonyl CoA (1.92 GBq/mmol, by Amersham)) were added to each well; 25 μL of an enzyme solution (100 mM potassium phosphate buffer (pH 6.5), 100 μg/mL human LCE) was added thereto; the top of the plate was airtightly sealed up; and this was incubated with gently shaking and stirring at 37° C. for 90 minutes. Next, 100 μL of 5 M hydrochloric acid was added to each well, and the assay plate was stirred at room temperature for 5 minutes to stop the enzyme reaction with hydrolyzing the acyl CoA. Next, the enzyme reaction solution in each well was adsorbed by each well of a 96-well GF/C filter plate (Perkin Elmer Unifilter 96 GF/C); the individual wells were washed with water to remove the non-adsorbed malonyl CoA; and the GF/C filter plate was dried at 50° C. for 60 minutes. Next, 30 μL of a scintillator (Perkin Elmer Microscinti 0) was added to each well; then the top of the plate was sealed up; and the fixed [^14C] radioactivity was measured with a microplate scintillation counter (Perkin Elmer TopCount) to be the enzyme activity. The human LCE enzyme-inhibitory activity of the test compound was calculated, based on the radioactivity of the DMSO-added well with no test compound therein as a control.

Q: How did the IC50 turn out when `Cc1ccc(NC(=O)c2cccc(S(=O)(=O)N3CCCCC3)c2)cc1` [Example 84, N-(4-methylphenyl)-3-(piperidin-1-ylsulfonyl)benzamide] was run?
A: 2600 nM

Q: `CC(C)c1ccc(NC(=O)c2cccc(S(=O)(=O)N3CCCC(CO)C3)c2)cc1` (stereo not drawn) [Example 37, 3-{[3-(hydroxymethyl)piperidin-1-yl]sulfonyl}-N-(4-isopropylphenyl)benzamide] was tested. Which IC50 did it give?
A: 66 nM

Q: For `CCCOc1cc(NC(=O)c2cccc(S(=O)(=O)c3ccccn3)c2)[nH]n1` [Example 118, N-(3-propoxy-1H-pyrazol-5-yl)-3-(pyridin-2-ylsulfonyl)benzamide], which IC50 is on record?
A: 24 nM

Q: How did the IC50 turn out when `O=C(NCCCc1ccccc1)c1cccc(S(=O)(=O)N2CCCCC2)c1` [Example 86, N-(3-phenylpropyl)-3-(piperidin-1-ylsulfonyl)benzamide] was run?
A: 3000 nM

Q: For `COc1cc(Oc2ccccc2)cnc1NC(=O)c1cccc(S(=O)(=O)N2CCCC2)c1` [Example 110, N-(3-methoxy-5-phenoxypyridin-2-yl)-3-(pyrrolidin-1-ylsulfonyl)benzamide], which IC50 is on record?
A: 210 nM

Q: How did the IC50 turn out when `CC(C)Oc1ccc(NC(=O)c2cccc(S(=O)(=O)N3CCC[C@@H]3C)c2)cc1` [Example 23, N-(4-isopropoxyphenyl)-3-{[(2S)-2-methylpyrrolidin-1-yl]sulfonyl}benzamide] was run?
A: 130 nM

Q: How did the IC50 turn out when `COc1ccc(NC(=O)c2cccc(S(=O)(=O)N3CCCCC3)c2)cn1` [Example 102, N-(6-methoxypyridin-3-yl)-3-(piperidin-1-ylsulfonyl)benzamide] was run?
A: 3400 nM

Q: `O=C(Nc1ccc(OC2CCCC2)cc1F)c1cccc(S(=O)(=O)c2ccccn2)c1` [Example 125, N-[4-(cyclopentyloxy)-2-fluorophenyl]-3-(pyridin-2-ylsulfonyl)benzamide] was tested. Which IC50 did it give?
A: 240 nM

Q: `CC(C)Oc1ccc(NC(=O)c2cccc(S(=O)(=O)N3CCN4CCCC4C3)c2)cc1` (stereo not drawn) [Example 12, 3-(Octahydropyrrolo[1,2-a]pyrazin-2(1H)-ylsulfonyl)-N-(4-isopropoxyphenyl)benzamide trifluoroacetate] was tested. Which IC50 did it give?
A: 6800 nM

Q: With `CC(C)Oc1ccc(NC(=O)c2cccc(S(=O)(=O)N3CCCC(c4nncn4C)C3)c2)cc1` (stereo not drawn) [Example 11, N-(4-isopropoxyphenyl)-3-{[3-(4-methyl-4H-1,2,4-triazol-3-yl)piperidin-1-yl]sulfonyl}benzamide trifluoroacetate] as the compound, how does the IC50 read?
A: 1000 nM

Q: Which IC50 does the source give for `CC(C)Oc1ccc(NC(=O)c2cccc(S(=O)(=O)N3C[C@@H]4C[C@H]3CN4C)c2)cc1` [Example 8, N-(4-isopropoxyphenyl)-3-{[(1S,4S)-5-methyl-2,5-diazabicyclo[2.2.1]hept-2-yl]sulfonyl}benzamide trifluoroacetate] here?
A: 9600 nM

Q: For `CC(C)Oc1ccc(NC(=O)CCc2cccc(S(=O)(=O)N3CCCCC3)c2)cc1` [Example 162, N-(4-isopropoxyphenyl)-3-[3-(piperidin-1-ylsulfonyl)phenyl]propanamide], which IC50 is on record?
A: 1500 nM

Q: For `CC(C)Oc1cc(NC(=O)c2cccc(S(=O)(=O)N3CCC(F)CC3)c2)[nH]n1` [Example 67, 5-({3-[(4-fluoropiperidin-1-yl)sulfonyl]benzoyl}amino)-3-isopropoxy-1H-pyrazole hydrochloride], which IC50 is on record?
A: 10 nM

Q: How did the IC50 turn out when `COc1ccc(C(=O)Nc2ccc(C(C)C)cc2)cc1S(=O)(=O)N1CCCCC1` [Example 155, N-(4-isopropylphenyl)-4-methoxy-3-(piperidin-1-ylsulfonyl)benzamide] was run?
A: 5700 nM

Q: For `O=C(Nc1ccccn1)c1cccc(S(=O)(=O)N2CCCCC2)c1` [Example 74, 2-{[3-(Piperidin-1-ylsulfonyl)benzoyl}amino]pyridine trifluoroacetate], which IC50 is on record?
A: 4900 nM

Q: How did the IC50 turn out when `O=C(NCCc1ccccc1)c1cccc(S(=O)(=O)N2CCCCC2)c1` [Example 78, N-(2-phenylethyl)-3-(piperidin-1-ylsulfonyl)benzamide] was run?
A: 7900 nM

Q: With `CC(C)Oc1ccc(NC(=O)c2cccc(S(=O)(=O)N3CCC[C@H]3C)c2)cc1` [Example 24, N-(4-isopropoxyphenyl)-3-{[(2R)-2-methylpyrrolidin-1-yl]sulfonyl}benzamide] as the compound, how does the IC50 read?
A: 670 nM

Q: How did the IC50 turn out when `O=C(Nc1ncccc1O)c1cccc(S(=O)(=O)N2CCCCC2)c1` [Example 98, N-(3-hydroxypyridin-2-yl)-3-(piperidin-1-ylsulfonyl)benzamide] was run?
A: 260 nM

Q: With `COc1ccc(S(=O)(=O)N2CCCCC2)cc1C(=O)Nc1ccc(C(C)C)cc1` [Example 150, N-(4-isopropylphenyl)-2-methoxy-5-(piperidin-1-ylsulfonyl)benzamide] as the compound, how does the IC50 read?
A: 31 nM

Q: With `COc1cccnc1NC(=O)c1cccc(S(=O)(=O)N2CCCCC2)c1` [Example 99, N-(3-methoxypyridin-2-yl)-3-(piperidin-1-ylsulfonyl)benzamide] as the compound, how does the IC50 read?
A: 36 nM

Q: With `CC(C)Oc1ccc(NC(=O)c2cccc(S(=O)(=O)N3CCCC(c4nc5ccccc5o4)C3)c2)cc1` (stereo not drawn) [Example 7, 3-{[3-(1,3-benzoxazol-2-yl)piperidin-1-yl]sulfonyl}-N-(4-isopropoxyphenyl)benzamide] as the compound, how does the IC50 read?
A: 51 nM

Q: For `COc1cccnc1NC(=O)c1cccc(S(=O)(=O)N2CC3CCC2CC3)c1` [Example 51, 3-(2-Azabicyclo[2.2.2]oct-2-ylsulfonyl)-N-(3-methoxypyridin-2-yl)benzamide], which IC50 is on record?
A: 330 nM

Q: For `COc1cccnc1NC(=O)c1cccc(S(=O)(=O)c2ccccn2)c1` [Example 120, N-(3-methoxypyridin-2-yl)-3-(pyridin-2-ylsulfonyl)benzamide], which IC50 is on record?
A: 390 nM

Q: With `CCc1cnc(NC(=O)c2cccc(S(=O)(=O)N3CCCCC3)c2)c(OC)c1` [Example 108, N-(5-ethyl-3-methoxypyridin-2-yl)-3-(piperidin-1-ylsulfonyl)benzamide] as the compound, how does the IC50 read?
A: 100 nM

Q: For `CC(C)Oc1ccc(NC(=O)c2cccc(S(=O)(=O)N3C[C@H]4C[C@@H]3CO4)c2)cc1` [Example 1, N-(4-isopropoxyphenyl)-3-[(1R,4R)-2-oxa-5-azabicyclo[2.2.1]hept-5-ylsulfonyl]benzamide], which IC50 is on record?
A: 2200 nM

Q: How did the IC50 turn out when `COC1CCCN(S(=O)(=O)c2cccc(C(=O)Nc3ccc(OC(C)C)cc3)c2)C1` (stereo not drawn) [Example 18, N-(4-isopropoxyphenyl)-3-[(3-methoxypiperidin-1-yl)sulfonyl]benzamide] was run?
A: 510 nM

Q: With `COc1ccccc1NC(=O)c1cccc(S(=O)(=O)N2CCCCC2)c1` [Example 80, N-(2-methoxyphenyl)-3-(piperidin-1-ylsulfonyl)benzamide] as the compound, how does the IC50 read?
A: 44 nM

Q: For `CC(C)Oc1ccc(NC(=O)c2cccc(S(=O)(=O)c3ncccn3)c2)nc1` [Example 138, N-(5-isopropoxypyridin-2-yl)-3-(pyrimidin-2-ylsulfonyl)benzamide], which IC50 is on record?
A: 240 nM

Q: With `COc1ccccc1NC(=O)c1cccc(S(=O)(=O)C2CCCCC2)c1` [Example 145, 3-(Cyclohexylsulfonyl)-N-(2-methoxyphenyl)benzamide] as the compound, how does the IC50 read?
A: 210 nM

Q: How did the IC50 turn out when `COc1ncccc1NC(=O)c1cccc(S(=O)(=O)N2CCCCC2)c1` [Example 97, N-(2-methoxypyridin-3-yl)-3-(piperidin-1-ylsulfonyl)benzamide] was run?
A: 2500 nM

Q: How did the IC50 turn out when `CC(C)c1ccc(NC(=O)c2cccc(S(=O)(=O)N3CC[C@@H](F)C3)c2)cc1` [Example 33] was run?
A: 2600 nM

Q: For `CC(C)Oc1ccc(NC(=O)c2cccc(S(=O)(=O)N3CCC[C@H](C(N)=O)C3)c2)nc1` [Example 59, (3S)-1-[(3-{[(5-isopropoxypyridin-2-yl)amino]carbonyl}phenyl)sulfonyl]piperidine-3-carboxamide], which IC50 is on record?
A: 110 nM

Q: For `O=C(Nc1ccc(OC(CF)CF)cc1F)c1cccc(S(=O)(=O)c2ccccn2)c1` [Example 124, N-{2-fluoro-4-[2-fluoro-1-(fluoromethyl)ethoxy]phenyl}-3-(pyridin-2-ylsulfonyl)benzamide], which IC50 is on record?
A: 350 nM

Q: How did the IC50 turn out when `CC(C)Oc1cc(NC(=O)c2cccc(S(=O)(=O)N3CCCC3)c2)[nH]n1` [Example 70, N-(3-isopropoxy-1H-pyrazol-5-yl)-3-(pyrrolidin-1-ylsulfonyl)benzamide hydrochloride] was run?
A: 6.8 nM

Q: For `CC(C)Oc1ccc(NC(=O)c2cccc(S(=O)(=O)N3CCCC(OCc4cccnc4)C3)c2)cc1` (stereo not drawn) [Example 20, N-(4-isopropoxyphenyl)-3-{[3-(pyridin-3-ylmethoxy)piperidin-1-yl]sulfonyl}benzamide trifluoroacetate], which IC50 is on record?
A: 530 nM

Q: For `Cc1cccc(S(=O)(=O)c2cccc(C(=O)Nc3ccc(OC(C)C)cc3)c2)n1` [Example 132, N-(4-isopropoxyphenyl)-3-[(6-methylpyridin-2-yl)sulfonyl]benzamide], which IC50 is on record?
A: 680 nM
